Laboratory results published in PubChem BioAssay AID282 (DTP/NCI, 2004).
Values joined by “and” are separate entries in the source; they are usually repeats but may differ in a detail not shown here. Equal values may be shown once. Toxic doses and inconclusive results are not listed.

Test system: BDF1 mice, L1210 terephthalanilide-resistant leukemia ip, survival T/C
Experiment: NCI In Vivo Anticancer Drug Screen. Data for tumor model L1210 Leukemia resistant to A Terephthalanilide; NSC 38280 (intraperitoneal) in B6D2F1 (BDF1) mice
Conditions: endpoint: mean survival time, higher = longer survival
Experimental: The antitumor activity of compounds was measured in mice bearing transplantable tumors. Survival or tumor size were measured and the results are expressed as the measurement made in the treated group (T) divided by the measurement made in the vehicle treated control group (C). The tumor model used in this assay is L1210 Leukemia resistant to A Terephthalanilide; NSC 38280 (intraperitoneal) in B6D2F1 (BDF1) mice

[1] = dose: 10.0 mg/kg/injection, schedule: Q01DX010 (ip), vehicle: saline
[2] = dose: 20.0 mg/kg/injection, schedule: Q01DX010 (ip), vehicle: saline
[3] = dose: 40.0 mg/kg/injection, schedule: Q01DX010 (ip), vehicle: saline

NC(Cc1c[nH]c2ccc(N(CCCl)CCCl)cc12)C(=O)O (stereo not given)
T/C (dose: 0.5 mg/kg/injection, schedule: Q01DX010 (ip), vehicle: saline): 117 % of control | T/C (dose: 1.0 mg/kg/injection, schedule: Q01DX010 (ip), vehicle: saline): 108 % of control | T/C (dose: 2.0 mg/kg/injection, schedule: Q01DX010 (ip), vehicle: saline): 120 % of control | T/C (dose: 4.0 mg/kg/injection, schedule: Q01DX010 (ip), vehicle: saline): 233 % of control

N#[N+]c1cnc([O-])[nH]c1=O
T/C (dose: 1.25 mg/kg/injection, schedule: Q01DX010 (ip), vehicle: saline): 110 % of control | T/C (dose: 2.5 mg/kg/injection, schedule: Q01DX Z (ip), vehicle: alkali diluted with saline): 102 % of control | T/C (dose: 5.0 mg/kg/injection, schedule: Q01DX Z (ip), vehicle: alkali diluted with saline): 102 % of control | T/C (dose: 7.5 mg/kg/injection, schedule: Q01DX Z (ip), vehicle: alkali diluted with saline): 106 % of control | T/C (dose: 10.0 mg/kg/injection, schedule: Q01DX Z (ip), vehicle: saline): 172 % of control | T/C (dose: 15.0 mg/kg/injection, schedule: Q01DX Z (ip), vehicle: alkali diluted with saline): 108 % of control | T/C (dose: 20.0 mg/kg/injection, schedule: Q01DX Z (ip), vehicle: saline): 96 % of control

CCn1cnc2c(=S)nc[nH]c21
T/C (dose: 15.6 mg/kg/injection, schedule: Q01DX010 (ip), vehicle: saline): 104 % of control | T/C (dose: 25.0 mg/kg/injection, schedule: Q01DX Z (ip), vehicle: carboxymethylcellulose (CMC)): 113 % of control | T/C (dose: 31.3 mg/kg/injection, schedule: Q01DX010 (ip), vehicle: saline): 106 % of control and 109 % of control | T/C (dose: 62.5 mg/kg/injection, schedule: Q01DX010 (ip), vehicle: saline): 95 % of control and 118 % of control | T/C (dose: 100.0 mg/kg/injection, schedule: Q01DX Z (ip), vehicle: carboxymethylcellulose (CMC)): 155 % of control | T/C (dose: 125.0 mg/kg/injection, schedule: Q01DX010 (ip), vehicle: saline): 123 % of control and 106 % of control

O=NN(CCCl)C(=O)NCCCl
T/C (dose: 6.25 mg/kg/injection, schedule: Q01DX010 (ip), vehicle: saline): 224 % of control | T/C (dose: 12.5 mg/kg/injection, schedule: Q01DX010 (ip), vehicle: saline): 105 % of control | T/C (dose: 25.0 mg/kg/injection, schedule: Q01DX010 (ip), vehicle: saline): 89 % of control

C[N+](C)(C)c1ncnc2nc[nH]c12
T/C (dose: 15.0 mg/kg/injection, schedule: Q01DX010 (ip), vehicle: saline): 92 % of control | T/C (dose: 30.0 mg/kg/injection, schedule: Q01DX010 (ip), vehicle: saline): 110 % of control | T/C (dose: 37.0 mg/kg/injection, schedule: Q01DX Z (ip), vehicle: saline): 102 % of control

O=c1[nH]c(=O)n(C2CC(O)C(CO)O2)cc1F (stereo not given)
T/C [1]: 103 % of control | T/C (dose: 12.5 mg/kg/injection, schedule: Q01DX Z (ip), vehicle: saline): 118 % of control | T/C [2]: 110 % of control and 119 % of control | T/C (dose: 25.0 mg/kg/injection, schedule: Q01DX Z (ip), vehicle: saline): 116 % of control | T/C (dose: 37.5 mg/kg/injection, schedule: Q01DX Z (ip), vehicle: saline): 122 % of control | T/C [3]: 95 % of control | T/C (dose: 50.0 mg/kg/injection, schedule: Q01DX Z (ip), vehicle: saline): 178 % of control | T/C (dose: 80.0 mg/kg/injection, schedule: Q01DX010 (ip), vehicle: saline): 151 % of control | T/C (dose: 100.0 mg/kg/injection, schedule: Q01DX Z (ip), vehicle: saline): 183 % of control | T/C (dose: 500.0 mg/kg/injection, schedule: Q01DX Z (ip), vehicle: saline): 119 % of control

CC(=O)OCC1OC(n2ncc(=O)[nH]c2=O)C(OC(C)=O)C1OC(C)=O (stereo not given)
T/C (dose: 125.0 mg/kg/injection, schedule: Q01DX Z (ip), vehicle: carboxymethylcellulose (CMC)): 183 % of control | T/C (dose: 250.0 mg/kg/injection, schedule: Q01DX Z (ip), vehicle: carboxymethylcellulose (CMC)): 206 % of control | T/C (dose: 375.0 mg/kg/injection, schedule: Q01DX Z (ip), vehicle: carboxymethylcellulose (CMC)): 214 % of control | T/C (dose: 500.0 mg/kg/injection, schedule: Q01DX Z (ip), vehicle: carboxymethylcellulose (CMC)): 168 % of control

C[C@@H]1C[C@@H]([C@H](O)CC2CC(=O)NC(=O)C2)C(=O)[C@@H](C)C1
T/C (dose: 1.25 mg/kg/injection, schedule: Q01DX Z (ip), vehicle: saline): 101 % of control | T/C (dose: 2.5 mg/kg/injection, schedule: Q01DX Z (ip), vehicle: saline): 107 % of control | T/C (dose: 5.0 mg/kg/injection, schedule: Q01DX010 (ip), vehicle: saline): 100 % of control and 105 % of control | T/C (dose: 5.0 mg/kg/injection, schedule: Q01DX Z (ip), vehicle: saline): 106 % of control | T/C (dose: 7.5 mg/kg/injection, schedule: Q01DX Z (ip), vehicle: saline): 107 % of control | T/C [1]: 123 % of control and 113 % of control | T/C [2]: 113 % of control and 117 % of control | T/C [3]: 115 % of control
